Laboratory results reported in PubChem BioAssay (NCI).
Where “and” joins values, the source holds several entries; their conditions need not be identical. Equal entries are not always repeated.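 Exposure lasted 48 hours, with cells grown in 96-well plates and compounds tested at five concentrations. GI50 marks 50% less growth. At the TGI there is no net growth.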

What was measured:
Test in all cases: DTP human tumour cell line panel, 48 h
SW-620 colon = system: SW-620 colon
RXF 393 renal = system: RXF 393 renal
HCC-2998 colon = system: HCC-2998 colon
SK-MEL-2 melanoma = system: SK-MEL-2 melanoma
HCT-116 colon = system: HCT-116 colon
U251 CNS = system: U251 CNS
RPMI-8226 leukemia = system: RPMI-8226 leukemia
A549 NSCLC = system: A549 NSCLC
OVCAR-4 ovarian = system: OVCAR-4 ovarian
SK-MEL-28 melanoma = system: SK-MEL-28 melanoma

Row | Structure (SMILES) | TGI (SW-620 colon) | TGI (RXF 393 renal) | TGI (HCC-2998 colon) | TGI (SK-MEL-2 melanoma) | TGI (HCT-116 colon) | TGI (U251 CNS) | TGI (RPMI-8226 leukemia) | TGI (A549 NSCLC) | TGI (OVCAR-4 ovarian) | TGI (SK-MEL-28 melanoma) | GI50 (SW-620 colon) | GI50 (RXF 393 renal) | GI50 (HCC-2998 colon) | GI50 (SK-MEL-2 melanoma) | GI50 (HCT-116 colon) | GI50 (U251 CNS) | GI50 (RPMI-8226 leukemia) | GI50 (A549 NSCLC) | GI50 (OVCAR-4 ovarian) | GI50 (SK-MEL-28 melanoma)
1 | COc1ccc(/C=C2/C(=O)N(C(=O)c3ccccc3O)N=C2C)cc1OC | > 100 µM | 0.097 µM | > 100 µM | > 30.9 µM | > 100 µM | > 100 µM | > 100 µM | > 100 µM | > 100 µM | > 100 µM | – | – | – | – | – | – | – | – | – | –
2 | O=C1C2=C(C(=O)c3c(O)ccc(O)c31)N(c1ccc(N3CCOCC3)nc1)Cc1ccccc1O2 | 0.5 µM | 0.308 µM | 2.99 µM | 3.75 µM | 0.332 µM | 2.21 µM | 0.945 µM | 9.11 µM | 1.05 µM | 0.785 µM | 152 nM | 0.148 µM | 1.56 µM | 1.39 µM | 96.6 nM | 0.603 µM | 0.265 µM | 2.88 µM | 0.282 µM | 0.275 µM
3 | O=C(Oc1cccnc1)c1ccccc1Nc1ccnc(C(F)(F)F)c1 | > 100 µM | 13.5 µM | 15.1 µM | > 100 µM | – | > 96.2 µM | 7.22 µM | > 100 µM | > 100 µM | > 60.1 µM | 49.8 nM | 0.473 µM | 0.363 µM | 20.2 µM | 34.2 nM | 0.33 µM | 0.0563 µM | 0.589 µM | 0.207 µM | 0.483 µM
4 | Oc1nc(NCCc2ccccc2)sc1/C=C1\C=Nc2ncccc21 | 8.09 µM and 11.9 µM | 4.08 µM and 5.72 µM | 13.2 µM and 24.3 µM | 6.65 µM and 9.08 µM | 11.1 µM and 6.5 µM | 7.89 µM and 11.5 µM | 12.5 µM and 16.1 µM | 12.5 µM and 14.6 µM | 11.7 µM and 18.7 µM | 13.6 µM and 7.58 µM | 1920 nM and 2370 nM | 1.91 µM and 2.53 µM | 3.6 µM and 6.06 µM | 2.4 µM and 2.94 µM | 1030 nM and 1230 nM | 2.29 µM and 3.26 µM | 3.21 µM and 2.99 µM | 3.18 µM and 3.67 µM | 2.95 µM and 3.69 µM | 2.83 µM and 2.52 µM
5 | O=C(CCCn1c2c(sc3ncccc32)c(=O)n2nnc(-c3ccccc3)c12)NCCc1cnc[nH]1 | 14.4 µM | 34 µM | 29.9 µM | 38.9 µM | 10.1 µM | 14.9 µM | 35.7 µM | 34.7 µM | 32.2 µM | 35 µM | 331 nM | 14.8 µM | 2.03 µM | 17.6 µM | 378 nM | 1.28 µM | 5.15 µM | 8.74 µM | 15.4 µM | 17 µM
6 | CCOc1ccccc1NC(=O)C(=O)CC(=O)C1=C(C)Nc2ccccc2S1 | > 100 µM | > 100 µM | > 100 µM | > 100 µM | > 100 µM | > 100 µM | > 100 µM | > 100 µM | > 100 µM | > 100 µM | – | – | – | – | – | – | – | – | – | –
7 | COC(=O)CCC(NC(=S)N/N=C(\C)c1ccccn1)C(=O)OC (centres undefined) | > 100 µM | > 100 µM | > 100 µM | > 100 µM | > 100 µM | > 100 µM | > 100 µM | > 100 µM | > 100 µM | > 100 µM | – | – | – | – | – | – | – | – | – | –
8 | O=c1[nH]c(=S)[nH]c2c1sc(=S)n2-c1ccccc1 | > 100 µM | > 100 µM | > 100 µM | > 100 µM | > 100 µM | > 100 µM | > 100 µM | > 100 µM | > 100 µM | > 100 µM | – | – | – | – | – | – | – | – | – | –
9 | C=C1CC[C@@H]2C(C)(C)[C@@H](O)CC[C@@]2(C)[C@@H]1COc1ccc2ccc(=O)oc2c1 | 44 µM | 21.9 µM | 31.1 µM | 32.8 µM | 28 µM | 24.8 µM | 65.7 µM | 66.8 µM | 21.6 µM | 30.1 µM | 18800 nM | 7.41 µM | 15.2 µM | 15.5 µM | 11100 nM | 9.62 µM | 8.75 µM | 8.46 µM | 6.97 µM | 15.1 µM
10 | NC(=S)N/N=C(/CC(=O)c1ccc([N+](=O)[O-])cc1)C(=O)Nc1ncc([N+](=O)[O-])s1 | > 100 µM | > 100 µM | > 100 µM | > 100 µM | > 100 µM | > 100 µM | > 100 µM | > 100 µM | > 100 µM | > 100 µM | – | – | – | – | – | – | – | – | – | –
11 | N#Cc1ccc(Oc2nccc(-c3c(-c4ccc(F)cc4)ncn3C3CCNCC3)n2)cc1 | > 25 µM | > 25 µM | > 25 µM | > 25 µM | > 13.5 µM | > 25 µM | > 25 µM | > 25 µM | > 25 µM | > 25 µM | > 15400 nM | 20.3 µM | 18.6 µM | > 25 µM | 5450 nM | 11.8 µM | 12.1 µM | > 16.3 µM | > 25 µM | > 25 µM
12 | O=C(N[C@H](c1ccc(Cl)c(Cl)c1)C1CNC1)c1ccc2cnccc2c1 | 15.2 µM | 3.74 µM | 6.06 µM | 22.4 µM | 13.2 µM | 17.8 µM | 14.1 µM | 16.5 µM | 19.4 µM | 18.6 µM | 2570 nM | 0.68 µM | 2.06 µM | 10.2 µM | 3230 nM | 4.62 µM | 3.9 µM | 3.29 µM | 5.68 µM | 5.5 µM
13 | Nc1nc(N)c2cc(CNc3ccc(Cl)c(Cl)c3)ccc2n1 | 1.5 µM | 2.18 µM | 2 µM | 3.01 µM | 1.31 µM | 1.66 µM | 3.62 µM | 1.34 µM | 2.37 µM | 2.84 µM | 133 nM | 0.748 µM | 0.64 µM | 1.52 µM | 83.9 nM | 0.433 µM | 1.61 µM | 0.0631 µM | 1.16 µM | 1.51 µM
14 | O=C(CC(=O)N1N=C(n2ccc3ccccc32)CC1c1ccccc1)Nc1cccc(Cl)c1 (centres undefined) | > 100 µM | > 100 µM | > 100 µM | > 100 µM | > 100 µM | > 100 µM | > 100 µM | > 100 µM | > 100 µM | > 100 µM | – | – | – | – | – | – | – | – | – | –
15 | CCCc1cc(=O)oc2c(C(=O)CC(C)C)c(O)c(CC=C(C)C)c(O)c12 | > 50 µM | 45.2 µM | > 50 µM | 49 µM | > 50 µM | > 50 µM | 22.1 µM | > 50 µM | > 50 µM | > 50 µM | 14900 nM | 13.7 µM | 4.87 µM | 9.71 µM | 8590 nM | 9.19 µM | 2.86 µM | 11.4 µM | 10.7 µM | 6.21 µM
16 | CC(=O)OC1(C#N)CC2OC1C1C2N1C(=O)c1ccccc1 (centres undefined) | > 100 µM | > 100 µM | > 100 µM | > 100 µM | > 100 µM | > 100 µM | > 100 µM | > 100 µM | > 100 µM | > 100 µM | – | – | – | – | – | – | – | – | – | –
17 | CCOP(=O)(CCP(=O)(OCC)OCC)OCC.C[CH2][Sn]([Cl])([Cl])[CH2]C | 42.1 µM | 30.1 µM | > 100 µM | 43.1 µM | > 100 µM | > 69.3 µM | 67.2 µM | > 100 µM | > 71.9 µM | > 61.9 µM | 21200 nM | 15.3 µM | > 69.4 µM | 18.9 µM | > 67300 nM | 37.9 µM | 22.7 µM | > 100 µM | > 48.7 µM | 35.6 µM
18 | COc1cc2c(cc1OC)C(CCc1ccc(Cl)cc1)N(C)CC2 (centres undefined) | 45.4 µM | 58.3 µM | 31.1 µM | 37.1 µM | 52.9 µM | 64.3 µM | > 100 µM | > 100 µM | > 100 µM | 46.9 µM | 19300 nM | 17.8 µM | 16.4 µM | 19.7 µM | 13800 nM | 22.8 µM | 24.9 µM | 45.2 µM | 33.9 µM | 20.1 µM
19 | OC(c1ccccc1)(c1ccccc1)c1ccccn1 | > 100 µM | > 100 µM | > 100 µM | > 100 µM | > 100 µM | > 100 µM | > 100 µM | > 100 µM | > 100 µM | > 100 µM | – | – | – | – | – | – | – | – | – | –
20 | Nc1nnc2nc(CC(=O)/C=C/c3ccccc3)c(=O)[nH]n12 | > 100 µM | > 100 µM | > 100 µM | > 100 µM | > 100 µM | > 100 µM | > 100 µM | > 100 µM | > 100 µM | > 100 µM | – | – | – | – | – | – | – | – | – | –
21 | COc1cc(CNC(=O)/C=C/C=C/c2ccc3c(c2)OCO3)ccc1OCc1cn(-c2ccc(Cl)c(Cl)c2)nn1 | 1.55 µM | 3.75 µM | 4.74 µM | 3.86 µM | 2.84 µM | 3.22 µM | 8.36 µM | 4.18 µM | 2.72 µM | 3.46 µM | 362 nM | 1.69 µM | 2.1 µM | 1.74 µM | 1220 nM | 1.65 µM | 2.3 µM | 0.999 µM | 1.09 µM | 1.67 µM
22 | Clc1ccc(-c2nc3c(-c4ccc(Cl)cc4)nc(-c4ccccc4)cn3c2-c2ccc(Cl)cc2)cc1 | > 50 µM | 29 µM | > 50 µM | > 50 µM | > 50 µM | > 50 µM | > 50 µM | > 50 µM | > 50 µM | > 50 µM | > 50000 nM | 11.1 µM | > 50 µM | 26 µM | > 50000 nM | 45.2 µM | > 50 µM | > 50 µM | > 50 µM | > 50 µM
